Reference: US20080146657A1, “Plant-Origin Alpha3-Adrenoceptor Agonist and Use of the Same” (priority 2003, published 2008)
Read-outs that look alike come from different tables or passages of the source.

Assays:
[1] = cited from earlier work
[2] = biological target: T1, human β3-adrenergic receptor (Homo sapiens, UniProt P13945); test: Measurement of human β3-adrenergic receptor agonist activity (intracellular cAMP, recombinant CHO-K1 cells); format: cell-based
T1 construct: expressed in transfected cells; vector pTracer-EF A
T1 sequence (P13945 1-402 limits assumed): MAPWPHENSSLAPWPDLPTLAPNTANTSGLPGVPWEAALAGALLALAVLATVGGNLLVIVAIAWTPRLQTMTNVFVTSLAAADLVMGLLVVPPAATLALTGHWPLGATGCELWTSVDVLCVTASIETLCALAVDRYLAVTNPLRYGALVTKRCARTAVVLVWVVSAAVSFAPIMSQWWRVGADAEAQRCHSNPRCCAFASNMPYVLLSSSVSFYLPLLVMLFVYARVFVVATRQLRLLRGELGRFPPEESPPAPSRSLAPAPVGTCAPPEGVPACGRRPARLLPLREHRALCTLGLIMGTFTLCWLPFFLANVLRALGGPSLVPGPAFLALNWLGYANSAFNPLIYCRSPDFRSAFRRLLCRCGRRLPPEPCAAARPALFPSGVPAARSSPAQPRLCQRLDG
Method: The obtained recombinant cells were cultured in a 96-well microplate until the cell density reaches 100%. After the medium was removed, the cells were washed once with Dulbecco's modified phosphate buffer solution (hereinafter, abbreviated as PBS; TaKaRa), and then 100 μL of an assay buffer [DMEM, 10% FCS, 20 mM HEPES (pH 7.2), 0.1 mM isobutylmethylxanthine] containing 10 μM isoproterenol was added. As a control, the assay buffer was used without addition of isoproterenol. After incubation at 37° C. for 20 minutes, the cells were washed once with PBS, and then the amount of intracellular cAMP were quantified using a cAMP EIA Kit (Amersham Bioscience). […] The selected recombinant cells were further cultured. […]
The human β3-adrenergic receptor-expressing recombinant 6H4-2d3 was cultured in a 96-well microplate in DMEM containing 10% FCS and 500 μg/mL Zeocin at 37° C. in a 5% CO2 atmosphere. […] The cells were washed once with PBS, and an assay buffer [DMEM, 10% FCS, 20 mM HEPES (pH 7.2), 0.1 mM isobutylmethylxanthine] supplemented with the test substance to be measured was added at 100 μL/well. After incubation at 37° C. for 10 minutes, the cells were washed once with PBS, and then their intracellular cAMP levels were quantified using a cAMP EIA Kit (Amersham Bioscience). […] The same test substance was measured three times and the mean and standard deviation of the measurements were used. […]

[3] = tested on: rat β-adrenergic receptor; details: rat adipocytes treated with quercetin; cited from earlier work
3T3-L1 adipocytes = test: Measurement of lipolytic effect using 3T3-L1 cells (glycerol release); format: cell-based, mouse; details: 5 μM to 500 μM; 3 days incubation
Method: 3T3-L1 cells which are adipocyte precursor cells derived from mice (purchased from Human Science Research Resource Bank) were added into a 96-well plate at 1×10^4 cells/well, and then cultured in Dulbecco's modified Eagle medium (D-MEM, GIBCO) supplemented with 10% fetal calf serum (FCS) at 37° C. in a 5% CO2 atmosphere. To induce differentiation to adipocytes, right before the cells reaches confluency, the medium was exchanged with 10% FCS-containing D-MEM supplemented with 0.5 mM 3-isobutyl-1-methylxanthine, 2×10^−7 M dexamethasone, and 0.8 μM insulin. Two days later, the medium was exchanged with 10% FCS-containing D-MEM supplemented only with 0.8 μM insulin. […] The culture medium of the cells cultured in the 96-well plate were removed by aspiration, 10% FCS-containing D-MEM containing the test substance was added at 100 μL/well, and after incubation for 3 days, 80 μL of the culture medium was collected from each well, and the amount of glycerol in the culture medium was determined using “F-Kit Glycerol” (Boehringer Mannheim). […] To a test medium, 0.5 to 500 μg/mL of dried lotus leaf extract, 0.5 to 500 μM of quercetin, and 10^−8 M to 10^−5 M of isoproterenol as a positive control were added individually, and the amount of glycerol released into the medium due to degradation of the fat stored in 3T3-L1 adipocytes was measured.

accumulation of cAMP ([2]; 15 μM, 30 µM, 60 μM, only in CHO-K1 cells expressing the receptor, not in non-expressing CHO-K1) | Structure (SMILES) | Solubility ([1]; boiling water) | Solubility ([1]; cold alcohol-ether) | Solubility ([1]; cold water) | Solubility ([1]; hot alcohol-glacial acetic acid) | cAMP accumulation [3] | Lipolysis (glycerol released into the medium) (3T3-L1 adipocytes) | β3-adrenergic receptor agonist activity (cAMP) ([2]; 1 μM, 10 μM, 100 μM, 1000 μM, compared with quercetin)
significant accumulation of cAMP | O=c1c(O)c(-c2ccc(O)c(O)c2)oc2cc(O)cc(O)c12 [quercetin, 3,3′,4′,5,7-pentahydroxyflavone] | slightly soluble | poorly soluble | insoluble | readily soluble | cAMP accumulates | significantly promoted | 
 | O=C(O)[C@H]1O[C@@H](Oc2c(-c3ccc(O)c(O)c3)oc3cc(O)cc(O)c3c2=O)[C@H](O)[C@@H](O)[C@@H]1O [Q3GA, quercetin 3-O-β-D-glucuronide] |  |  |  |  |  |  | β3-adrenergic receptor agonist activity similar to that of quercetin
